In patent US20220081434A1, “DIHYDROISOQUINOLINE COMPOUND” (SUZHOU ARK BIOPHARMACEUTICAL CO., LTD., priority 2019, published 2022):
Read-outs that look alike come from different tables or passages of the source.

Key:
HBV DNA = test: Determination of HBV DNA in HepG2.2.15 cell supernatant by qPCR; assay type: cell-based, hepatitis B virus (HepG2.2.15 cells); details: Hepatitis B virus, 168 h, HepG2.2.15 cells, supernatant after a total of 7 days of drug action, read-out: Inhibitory activity against HBV DNA IC50
Experimental: (§1) The full genome of HBV was inserted into an […] cell, which could therefore express HBV continuously (Sells et al, Proc Natl Acad Sci USA. 1987 February; 84 (4):1005-9). The culture condition was DMEM medium containing 10% serum and […] G418. Cells were placed in an incubator containing 5% CO2 and cultured at 37° C.
HepG2.2.15 cells were seeded into a 96-well culture plate at a density of 4×10^4 cells/well. After 4 hours, the drug dissolved in DMSO was subjected to a 4-fold dilution and then added to cells. 0.5% DMSO was added separately as control. On the 4th day of drug action, the original supernatant was removed and then the drug was added thereto again. The supernatant was collected after a total of 7 days of drug action and treated with lysis buffer. The determination of hepatitis B DNA was carried out by real-time fluorescence-based quantitative polymerase chain reaction (qPCR). After the completion of the qPCR, data were exported from the instrument and analyzed, and IC50 indicating antiviral activity was calculated after fitting the dose-response curve.

[1] = test system: hepatitis B surface antigen (HBsAg); test: Determination of hepatitis B surface antigen (HBsAg) in HepG2.2.15 cell supernatant; assay type: cell-based, hepatitis B virus (HepG2.2.15 cells); details: Hepatitis B virus, HepG2.2.15, 96 h, read-out: HBsAg inhibitory activity IC50
Experimental: as §1
HepG2.2.15 cells were seeded into a 96-well culture plate at a density of 3×10^4 cells/well. On the next day, the drug dissolved in DMSO was subjected to a 5-fold dilution and then added to the cells. 0.5% DMSO was added separately as control. The supernatant was collected after 4 days of drug action, and the content of hepatitis B surface antigen was determined.
The determination of hepatitis B surface antigen was carried out by using a kit for quantitative determination of hepatitis B virus surface antigen (chemiluminescence method). The specific operations were as follows. 50 μL cell culture supernatant was taken and transferred to the assay plate. 50 μL of enzyme-linked reagent was added thereto and the assay plate was sealed. Incubation was carried out at room temperature for 1 hour. Afterwards, the assay plate was washed six times with PBS, and finally, the residual liquid was removed by shaking the plate. 25 μL of substrates A and B were added respectively, and the determination was conducted by using a microplate reader (Tecan Infinite® F200) after ten minutes of reaction. IC50 was calculated after fitting the dose-response curve.

[2] = Pharmacokinetic experiments in ICR mice (plasma); assay type: in vivo; details: for AUC(0-t): read-out: AUC0-12
Experimental: Multiple compounds in the Examples of the present disclosure were administered to ICR mice to conduct pharmacokinetic experiments. A single intravenous injection (with a dose of 2 mg/kg) and a single oral administration (with a dose of 10 mg/kg) were administered respectively. Blood was respectively collected prior to administration and 5 minutes, 15 minutes, 30 minutes, 1 hour, 2 hours, 4 hours, 8 hours, 12 hours and 24 hours after administration, and the concentration of the test compound in plasma was determined. Plasma pharmacokinetic data of the control compound (obtained from Example 28 in patent WO2018130152 A1) and the compounds of Examples 10 and 19 in the present disclosure in mice were as shown in the following Table 5 to Table 7.

[3] = mouse, single intravenous injection 2 mg/kg, plasma
[4] = mouse, single oral administration 10 mg/kg, plasma

## COCc1ncc(-c2cc3c(cc2OC)-c2cc(=O)c(C(=O)O)cn2C(C(C)(C)C)C3)s1 (centres unmarked) [Example 10, 6-tert-butyl-10-methoxy-9-[2-(methoxymethyl)thiazol-5-yl]-2-oxo-6,7-dihydro-2H-pyrido[2,1-a]isoquinoline-3-carboxylic Acid]
HBV DNA
  IC50: 0.13 nM
[1]
  IC50: 0.2 nM
[2]; mouse, plasma, oral 10 mg/kg vs intravenous 2 mg/kg, read-out: F (bioavailability)
  bioavailability: 33.9%
[2]; [3]
  AUC(0-inf): 0.804 µg·h/mL
  Cmax: 0.423 µg/mL
  Tmax: 0.08 h
  clearance: 2.49 L/h/kg
  half-life: 1.9 h
  AUC(0-t): 0.796 µg·h/mL
[2]; mouse, single intravenous injection 2 mg/kg, plasma, read-out: Vss
  Vd: 5.42 L/kg
[2]; [4]
  AUC(0-inf): 1.4 µg·h/mL
  Cmax: 0.458 µg/mL
  Tmax: 0.5 h
  half-life: 2.6 h
  AUC(0-t): 1.35 µg·h/mL
[2]; same dose, after intravenous injection and oral administration
  plasma exposure compared with the control compound: significantly higher

## CCOc1ncc(-c2cc3c(cc2OC)-c2cc(=O)c(C(=O)O)cn2C(C(C)(C)C)C3)s1 (centres unmarked) [Example 13, 6-tert-butyl-9-[2-(ethoxy)thiazol-5-yl]-10-methoxy-2-oxo-6,7-dihydro-2H-pyrido[2,1-a]isoquinoline-3-carboxylic Acid]
HBV DNA
  IC50: 0.31 nM
[1]
  IC50: 0.2 nM

## COc1cc2c(cc1-c1cnc(C(C)O)s1)CC(C(C)(C)C)n1cc(C(=O)O)c(=O)cc1-2 (centres unmarked) [Example 16, 6-tert-butyl-9-[2-(1-hydroxyethyl)thiazol-5-yl]-10-methoxy-2-oxo-6,7-dihydro-2H-pyrido[2,1-a]isoquinoline-3-carboxylic Acid]
HBV DNA
  IC50: 0.41 nM
[1]
  IC50: 0.1 nM

## CCCc1ncc(-c2cc3c(cc2OC)-c2cc(=O)c(C(=O)O)cn2C(C(C)(C)C)C3)s1 (centres unmarked) [Example 18, 6-tert-butyl-10-methoxy-2-oxo-9-(2-propylthiazol-5-yl)-6,7-dihydro-2H-pyrido[2,1-a]isoquinoline-3-carboxylic Acid]
HBV DNA
  IC50: 0.06 nM
[1]
  IC50: 0.09 nM

## COc1cc2c(cc1-c1cnc(COC(F)F)s1)CC(C(C)(C)C)n1cc(C(=O)O)c(=O)cc1-2 (centres unmarked) [Example 23, 6-tert-butyl-9-{2-[(difluoromethoxy)methyl]thiazol-5-yl}-10-methoxy-2-oxo-6,7-dihydro-2H-pyrido[2,1-a]isoquinoline-3-carboxylic Acid]
HBV DNA
  IC50: 0.84 nM
[1]
  IC50: 0.2 nM

## COc1cc2c(cc1-c1cnc(COC3CC3)s1)CC(C(C)(C)C)n1cc(C(=O)O)c(=O)cc1-2 (centres unmarked) [Example 24, 6-tert-butyl-9-[2-(cyclopropoxymethyl)thiazol-5-yl]-10-methoxy-2-oxo-6,7-dihydro-2H-pyrido[2,1-a] isoquinoline-3-carboxylic Acid]
HBV DNA
  IC50: 0.45 nM
[1]
  IC50: 0.2 nM
